The source of these data is patent US12404332B2, “Methods for diagnosing and treating cancers” (Research Development Foundation, priority 2020, dated 2025).

For assay [1], the system named is PD-L1 in OVCAR5 cells. Nature of the assay: PD-L1 mRNA, protein and ubiquitination in OVCAR5 cells. The format is cell-based, human. Particulars: OVCAR5 cells. The protocol:
FIGS. 39A-C: CAMB reduces PD-L1 through ubiquitination. FIG. 39A, RT-qPCR for PD-L1 mRNA in OVCAR5 and ID8agg cells treated with (+) or without (−) chlorambucil for 48 hours. (n=4). FIG. 39B, Western blot for PD-L1 protein in OVCAR5 cells with (+) or without (−) MG132 for 6 or 20 hours. (upper panel). PD-L1 expression in OVCAR5 cells treated with chlorambucil 48 hours and/or MG132 for 6 hours (lower panel). FIG. 39C, Ubiquitinated PD-L1 was immunoprecipitated (IP) and subjected to Western blot analysis with anti-ubiquitin (Ub) antibody. Cells were treated with chlorambucil for indicated times prior to ubiquitination analysis.
(§1) Western blotting and immunoprecipitation: To prepare whole cell lysates, cells were harvested and lysed in RIPA (radioimmunoprecipitation assay) buffer plus 1 mM phenylmethylsulphonyl fluoride and Halt protease/phosphatase inhibitor cocktail (Thermo Scientific) at 4° C. Protein concentrations were measured by BCA Protein Assay Kit (Thermo Scientific). Protein was run on precast 4-15% sodium dodecyl sulfate polyacrylamide gels (Bio-Rad), transferred to polyvinylidene fluoride membranes (GE Water and Process Technologies), and then blocked in 5% non-fat milk for 1 hour at room temperature. The membranes were then incubated with 1:1000 diluted primary antibodies against indicated proteins (Cell Signaling). Specific antibody binding was detected by chemiluminescence using Western Lightening Plus regent (Perkin Elmer). Cells for (co) immunoprecipitation experiments were seeded in 15-cm dishes and cultured as described, using 6 million cells per immunoprecipitation reaction. For protein ubiquitination, cells were lysed in denaturing buffer (50 mM Tris-HCl, 0.5 mM EDTA and 1% SDS) followed by heating at 95° C. for 10 minutes and then quenched with 9 volumes of quenching buffer (0.5% Triton X-100, 20 mM Tris-HCl (pH 8.0), 137 mM NaCl, 10% glycerol, 2 mM EDTA). Protease inhibitor cocktail (Roche) was added fresh to all buffers. Cell lysates were incubated on a rotator for 30 minutes at 4° C., and then centrifuged at 20,000 g for 15 minutes at 4° C. Supernatants were subsequently incubated with anti-PD-L1 antibody overnight and processed using Dynabeads Protein G for Immunoprecipitation (Thermo Fisher Scientific). The final eluate was processed and Western blotting was performed.
Quantitative Real-Time Reverse Transcriptase Polymerase Chain Reaction: Total RNA was isolated from homogenized whole lung tissue with Trizol reagent (Invitrogen) according to manufacturer instructions. […] Quantitative PCR (qPCR) was conducted using the Bio-Rad Real-Time PCR System (Applied Biosystems), amplified with transcript-specific primers with SYBR Green (Thermo Scientific), according to manufacturer instructions. […]

The subject of assay [2] is PD-L1. Nature of the assay: Tumor cell PD-L1 depletion by drugs (flow cytometry, immunoblot). Type of assay: cell-based, human and mouse. Particulars: for expression of PD-L1 in cancer cells: summary statement. The method, then:
High throughput Screening: B16 PD-L1 RFP cells were treated with 2.5 and 10 μM compounds from the Prestwick and LOPAC Libraries for 48 hours using the Agilent Bravo liquid pipetting platform. Then, cells were washed with PBS, and fixed with 4% paraformaldehyde (Electron Microscopy Sciences, Hatsfield, PA, Cat 15714S) and labeled with 2 μg/ml DAPI, (Molecular Probes, Cat D1306) and 1 μg/ml Cell Mask-Blue (Invitrogen, Cat. H32720). Plates were then imaged using the Operetta High Content Imaging System, Perkin Elmer, Waltham (DAPI and Cell Mask Blue, Ex 360-400, Em 410-480), and the RFP channels (Ex 520-550, Em 560-630) channels. Agents effecting ≥2-fold PD-L1 reduction in the RFP reporter without loss of ≥20% cell viability were candidate PD-L1 depletion agents.
Flow cytometry: Mice were sacrificed by cervical dislocation after induction of deep isoflurane anesthesia. ID8agg tumors were collected and cells were stained as described (Derup et al., 2020) using LSR II hardware and analyzed by FACS Diva (BD Bioscience) or Flow Jo software (Flow Jo, LLC). Anti-mouse (clone 10F.9G2) and human (clone 29E.2A3) PD-L1 [both PE/Cy7, Cat #124314 (mouse) 329718 (human)] were matched with isotype control. Apoptosis assessment used Annexin V and propidium iodide (Thermo Scientific) per manufacturer instruction.
as §1

For assay [3], the system named is mTORC1. Nature of the assay: Western blots for mTORC1 pathway and LC3 autophagy. The format is cell-based. The protocol:
FIGS. 40A-C: CAMB suppresses mTORC1 signals and reduces TIC numbers. FIG. 40A, Western blots for proteins in the mTORC1 pathway. Cells were treated with chlorambucil as indicated concentration for 48 hours. FIG. 40B, Western blot for LC3I/II to assess autophagy in cell lysates treated±chlorambucil at indicated concentrations. FIG. 40C, Percent of ALDH^hi TIC by flow cytometry of ES2 cells cultured±chlorambucil. Percent CD44^+CD24^+ ID8agg TIC and CD44^+CD133^+CD24^+ B16 TIC detected by flow cytometry.
as §1

Assay [4] has as its system PD-L1, Chk2, gH2AX in RT4 cells. The assay can be described thus: Cefepime depletion of PD-L1 and Chk2, DNA damage (gH2AX). The format is cell-based, human. The protocol:
Experiments were performed to see if beta-lactam antibiotics may deplete PD-L1 in cancer cells. RT4 cells were incubated at 80 μM cefepime.
Next experiments were performed to see if beta-lacatam antibiotics can deplete Chk2 in vitro. RT4 cells were treated with 1 μM rabusertib (Chk1i), 75 μM cefepime (D7), or combination. Protein lysates were collected at 24, 48, 72, and 96 hours.

For assay [5], the system named is RT4 cells. Nature of the assay: Chk1 inhibitor synthetic lethality with beta-lactam antibiotics, RT4 cells. Particulars: for synthetic lethality with Chk1i: RT4 cells, Chk1i rabusertib. Type of assay: cell-based, human. The method, then: Additional experiments were performed, as follows. MB49 were plated at 2,000 cells/well in 96 well flat bottom plates and treated with PD-L1 depleting drugs, olaparib (2.5 μM), and combination for 96 hours. RT4 were plated at 2,000 cells/well in 96 well flat bottom plates and treated with cefepime, rabusertib (1 μM), praxasertib, or combination for 96 hours. ID8agg, 4T1, and B16 cells were plated on fibronectin at 500 cells/well and treated with cefepime, rabusertib, or combination for 96 hours. Normalized treatment combination to DDR inhibitor alone, and PD-L1 depleting drug to vehicle alone (DMSO) were evaluated.

Assay [6] deals with UV induced TpN^61R derived CD274^+/+ or CD274^−/− melanoma cells. Nature of the assay: Viability of de novo Nras CD274^+/+ versus CD274^−/− melanoma cells. Conditions: in vitro. Type of assay: cell-based, mouse. The text has this:
FIGS. 26A-H: De novo PD-L1^KO tumors phenocopy important aspects of genetic PD-L1 depletion in established tumors. FIG. 26A, Melanoma-free survival of melanocyte specific CD274^fl,fl TpN^61R (KO) versus littermate (WT) autochthonous mice under conditions shown. FIG. 26B, Validation of PD-L1 expression by immunoblot (IB) of melanoma cells derived from UV induced (4.5 Kj/m^2) WT (CD274^+/+) or melanocyte specific CD274^KO (CD274^−/−) mice±in vitro interferon (IFN)-γ treatment. Viability curves of CD274^+/+ versus CD274^−/− cells treated with the selective Chk1 inhibitors FIG. 26C, prexasertib […] or FIG. 26D, rabusertib (LY2603618) in vitro at indicated concentrations. FIG. 26E, IB analysis of PD-L1, ATM, Chk2, and γH2AX of vehicle or rabusertib-treated CD274^+/+ and CD274^−/− cell lines. FIGS. 26F-H, Tumor growth curves in WT C57BL/6J mice (n=10 tumors/group) challenged with UV induced TpN^61R derived CD274^+/+ or CD274^−/− melanoma cells and treated with rabusertib (Chk1i, LY2603618) on the indicated treatment schedule. P values, two-way ANOVA.

The test system of assay [7] is 4T1 murine breast cancer cells. Nature of the assay: In vitro viability (MTT) of CTRL versus PD-L1^lo 4T1 cells. Type of assay: cell-based, mouse. The protocol: (§2) Cells (1×10^3) were plated in 96 well plastic culture plates in respective medium and treated for 5 days with DDRi or 3 days with gemcitabine at indicated concentrations. Drug concentrations were carefully optimized in preliminary work not shown. Cell viability was by MTT (3-(4,5-dimethylthiazol-2-yl)-2,5-diphenyl tetrazolium bromide) at 5 mg/ml. Absorbance was measured at 540 nm. Results are presented as a mean+/−SEM of ≥6 replicates. Total cells and viability were confirmed using a Vi-Cell-XR (Beckman Coulter).

The subject of assay [8] is ID8agg murine ovarian cancer cells. The assay can be described thus: In vitro viability (MTT) of CTRL versus PD-L1^KO ID8agg cells. The format is cell-based, mouse. Particulars: monotherapy. The protocol: as §2
Assay [9] has as its system RT4 human bladder cancer cells. Nature of the assay: In vitro viability (MTT) of CTRL versus PD-L1^KO RT4 cells. Conditions: monotherapy. Type of assay: cell-based. The method, then:
as §2

Residues, ends and D or L forms follow the SMILES beside them. *: point of attachment. Cbz = O=C(OCc1ccccc1)*

`CC(C)C[C@@H](C=O)NC(=O)[C@H](CC(C)C)NC(=O)[C@H](CC(C)C)NC(=O)OCc1ccccc1` [MG132] (Cbz-Leu-Leu-Leu-aldehyde): the “effect on CAMB-mediated PD-L1 reduction” value in [1] is “abolished CAMB-mediated PD-L1 reduction”. The PD-L1 expression entry in assay [1] (by 6 hours after treatment) is recorded as “increased PD-L1 expression”.
`Nc1nc2c(ncn2CCOCP(=O)(O)O)c(=O)[nH]1` [PMEG, 9-(2-phosphonylmethoxyethyl) guanine]: the “effect on cell viability” value in assay [2] (over 2-3 days, human and mouse tumor lines) is listed as “little effect on cell viability”. Moreover, the “expression of PD-L1 in cancer cells” value in assay [2] is “decreased expression of PD-L1”. For the same molecule, in [3], the autophagy entry was “promote autophagy” and the mTORC1 signals entry is reported as “suppress mTORC1 signals”.
For `CO/N=C(\C(=O)N[C@@H]1C(=O)N2C(C(=O)[O-])=C(C[N+]3(C)CCCC3)CS[C@H]12)c1csc(N)n1` [cefepime], the “expression of PD-L1 in cancer cells” value in [2] is “decreased expression of PD-L1”. Also, in assay [4] (FIGS. 44A-B, cells not given), the Chk2 entry is recorded as “depleted”; the “DNA damage, as measured via gH2AX” value is given as “increased DNA damage”; the PD-L1 entry is “depleted”. Also, the Chk2 in vitro entry in [4] (RT4 cells, 75 μM, 24-96 hours) is “deplete Chk2”. For the same molecule, the “PD-L1 expression in vitro” value in assay [4] (RT4 cells, 80 μM) is reported as “deplete PD-L1 expression”. Moreover, the “effect on rabusertib efficacy” value in assay [5] (FIG. 46B, cells not given) is “improves rabusertib efficacy”. Also, the “synthetic lethality with Chk1i” value in [5] is listed as “elicited Chk1 inhibitor synthetic lethality in a PD-L1-dependent manner”.
With `Cc1nnc(SCC2=C(C(=O)O)N3C(=O)[C@@H](NC(=O)Cn4cnnn4)[C@H]3SC2)s1` [cefazolin], the “synthetic lethality with Chk1i” value in [5] is on record as “not as effective”.
Regarding `C[C@@H](O)[C@H]1C(=O)N2C(C(=O)O)=C(S[C@@H]3CN[C@H](C(=O)N(C)C)C3)[C@H](C)[C@H]12` [meropenem], the “synthetic lethality with Chk1i” value in assay [5] was “not induce synthetic lethality”.
`COc1cccc(OCCCN)c1-c1cc(Nc2cnc(C#N)cn2)n[nH]1` [prexasertib]: in assay [6], the “synthetic lethality in induced PD-L1^KO tumors” value is recorded as “exhibited synthetic lethality”.
Turning to `C[C@@H]1COCCN1c1cc(C2([S@](C)(=N)=O)CC2)nc(-c2cc[nH]c3nccc2-3)n1` [AZD6738], the “sensitivity of PD-L1^lo versus control 4T1 cells to the agent” value in assay [7] was “enhanced sensitivity”. Also, in assay [8] (listed as ATRi), the “sensitivity of PD-L1^KO versus control ID8agg cells to the agent” value is listed as “enhanced sensitivity”.
For `CC1(C)S[C@@H]2[C@H](NC(=O)Cc3ccccc3)C(=O)N2[C@H]1C(=O)O` [Penicillin G], the “synthetic lethality with Chk1i” value in [5] is recorded as “not induce synthetic lethality”.
Turning to `CN(C)CCCOc1ccc(-c2ccc3ncc4c(c3c2)n(C2CCOCC2)c(=O)n4C)cn1` [AZD0156], in assay [8], the “sensitivity of PD-L1^KO versus control ID8agg cells to the agent” value was “Minimal effects”. Also, the “sensitivity of PD-L1^KO versus control RT4 cells to the agent” value in assay [9] is on record as “Minimal effects”.
For `CO/N=C(\C(=O)N[C@@H]1C(=O)N2C(C(=O)O)=C(CSc3nc(=O)c(=O)[nH]n3C)CS[C@H]12)c1csc(N)n1` [Ceftriaxone], in [5], the “synthetic lethality with Chk1i” value is listed as “not as effective”.
